We go through 19 compounds from US9365549B2, “Hepatitis C virus inhibitors” (THERAVANCE BIOPHARMA R&D IP, LLC, priority 2012, dated 2016).

This test relates to HCV genotype 1a replicon cell line. Briefly: HCV Genotype 1a Replicon Assay. The class given is cell-based. The settings on record: Hepatitis C virus, Huh7.5 cell background, NS3-specific protease activity in lysates, 48 or 72 hours, read-out: pEC50 Genotype 1a (converted). The procedure: Assay 2: HCV Genotype 1a Replicon Assay
The HCV genotype 1a replicon cell line was obtained from Apath LLC (APC89; Huh7.5 cell background). This subgenomic replicon contains the N-terminus of the HCV core protein fused to the neomycin-resistance selectable marker. The EMCV IRES lies downstream and drives expression of the non-structural proteins NS3-NS5B. Compound potencies were determined using the NS3-specific protease activity in lysates as a measurement of compound inhibition of replicon levels.
Cells were grown at 37° C. in a 5% CO2 humidified incubator in DMEM (Invitrogen) with 10% FBS (HyClone), 1×NEAA (Invitrogen), 1× Pen-Strep (Invitrogen), and 850 μg/mL G418 (Invitrogen). On day 1 of the assay, cells were plated at 15,000 cells/well in black 96-well tissue culture plates (Costar) in 200 μL media lacking G418. […] Compounds were initially diluted in DMSO and then diluted another 200× in media to bring the final DMSO concentration down to 0.5%. The cells were incubated with test compounds for 48 or 72 hours. At the end of the incubation period, media and compound were removed from the plates.
To determine the NS3-specific protease activity in lysates, the cells were lysed at room temperature in 50 μL/well of 50 mM Hepes pH 7.5, 150 mM NaCl, 15% Glycerol, 0.15% Triton X-100, 10 mM DTT for 20 minutes with shaking. 50 μL of an NS3/4a protease-specific FRET substrate (Anaspec RET S1 Cat#22991) was then added to the wells at a final concentration of 15 μM. The plates were incubated at 37° C. for 20 minutes, which corresponds to a timepoint at which the protease activity is still in the linear phase. Protease activity was determined by measuring fluorescence (Excitation: 340 nm; Emission: 509 nm).
To analyze the data, the fluorescence was plotted vs. the compound concentration, and EC50 values were determined from a 4-parameter robust fit model using GraphPad Prism software.
(In general: A replicon is a self-replicating genome or part of one, used to study replication in cells.)

Where only a bound is given, the exact number is not on record here.

Consider `[2H]C([2H])([2H])C1(C([2H])([2H])[2H])CC1C(=O)N1C[C@@H](C)N(c2ccc(NC(=O)c3ccc(-c4ccc5c(ccc6[nH]c([C@@H]7C[C@H](C)CN7C(=O)[C@@H](NC(=O)OC)C(C)C)nc65)c4)c(OC(F)(F)F)c3)cn2)CC1C` (stereo partly shown) [Example 3-8], for which the EC50 is less than 0.1 nM.

Regarding `CNC(=O)N1C[C@@H](C)N(c2ccc(NC(=O)c3ccc(-c4ccc(-c5c[nH]c([C@@H]6C=C(C)CN6C(=O)[C@@H](NC(=O)OC)C(C)C)n5)cc4)c(OC(F)(F)F)c3)cn2)CC1C` (stereo partly shown) [Example 2-2], the EC50 is 0.1 to 1 nM. Then `COC(=O)N[C@H](C(=O)N1C[C@@H](C)CC[C@H]1c1nc(-c2ccc(-c3cc(Cl)c(NC(=O)c4ccc(N5CCN(C(=O)C(C)(C)CO)C[C@H]5C)nc4)cc3OC(F)(F)F)cc2)c[nH]1)C(C)C` [Example 11, [(S)-1-((2S,5S)-2-{4-[5′-Chloro-4′-({6-[(R)-4-(3-hydroxy-2,2-dimethyl-propionyl)-2-methyl-piperazin-1-yl]-pyridine-3-carbonyl}-amino)-2′-trifluoromethoxy-biphenyl-4-yl]-1H-imidazol-2-yl}-5-methyl-piperidine-1-carbonyl)-2-methyl-propyl]-carbamic acid methyl ester], with 0.1 to 1 nM; and `COC(=O)N[C@H](C(=O)N1CC(C2CC2)=C[C@H]1c1nc(-c2ccc(-c3cc(Cl)c(NC(=O)c4ccc(N5CCN(C(=O)C(C)(C)C)C[C@H]5C)nc4)cc3OC(F)(F)F)cc2)c[nH]1)C(C)C` [Example 3, [(S)-1-((S)-2-{4-[5′-Chloro-4′-({6-[(R)-4-(2,2-dimethyl-propionyl)-2-methyl-piperazin-1-yl]-pyridine-3-carbonyl}-amino)-2′-trifluoromethoxy-biphenyl-4-yl]-1H-imidazol-2-yl}-4-cyclopropyl-2,5-dihydro-pyrrole-1-carbonyl)-2-methyl-propyl]-carbamic acid methyl ester], with less than 0.1 nM.

Turning to `COC(=O)N[C@H](C(=O)N1C[C@@H](C)C[C@H]1c1nc2c(ccc3cc(-c4ccc(C(=O)Nc5ccc(N6CC(C)N(C(=O)N(C)C)C[C@H]6C)nc5)cc4OC(F)(F)F)ccc32)[nH]1)C(C)C` (stereo partly shown) [Example 3-10], the EC50 was less than 0.1 nM. Then `COC(=O)N[C@H](C(=O)N1[C@@H]2CC[C@@H](C2)[C@H]1c1nc(-c2ccc(-c3cc(Cl)c(NC(=O)c4ccc(N5CCN(C(=O)C(C)(C)C)C[C@H]5C)nc4)cc3OC(F)(F)F)cc2)c[nH]1)C1CCOCC1` [Example 5-4], with less than 0.1 nM; and `COC(=O)N[C@H](C(=O)N1C[C@@H](C)C[C@H]1c1nc2c(ccc3cc(-c4ccc(C(=O)Nc5ccc(N6CC(C)N(C(=O)C7CC7)C[C@H]6C)nc5)cc4OC(F)(F)F)ccc32)[nH]1)C(C)C` (stereo partly shown) [Example 3-11], with less than 0.1 nM; and `COC(=O)N[C@H](C(=O)N1CC(C)=C[C@H]1c1nc(-c2ccc(-c3ccc(C(=O)Nc4ccc(N5CC(C)N(C(=O)C(C)(C)NC(=O)C6CCC6)C[C@H]5C)nc4)cc3OC(F)(F)F)cc2)c[nH]1)C(C)C` (stereo partly shown) [Example 2-9], with 0.1 to 1 nM.

For the compound `COC(=O)N[C@H](C(=O)N1CC(C)=C[C@H]1c1nc(-c2ccc(-c3ccc(C(=O)Nc4ccc(N5CC(C)N(C(=O)C6CC6(Cl)Cl)C[C@H]5C)nc4)cc3OC(F)(F)F)cc2)c[nH]1)C(C)C` (stereo partly shown) [Example 2-7], the EC50 is 0.1 to 1 nM. Then `COC(=O)N[C@H](C(=O)N1CC(C)CC[C@H]1c1nc(-c2ccc(-c3cc(Cl)c(NC(=O)c4ccc(N5CCN(C(=O)C(C)(C)C)C[C@H]5C)nc4)cc3OC(F)(F)F)cc2)c[nH]1)C(C)C` (stereo partly shown) [Example 1-5], with 0.1 to 1 nM; and `COC(=O)N[C@H](C(=O)N1C[C@H]2[C@@H]([C@H]1c1nc(-c3ccc(-c4cc(Cl)c(NC(=O)c5ccc(N6CCN(C(=O)C(C)(C)C)C[C@H]6C)nc5)cc4OC(F)(F)F)cc3)c[nH]1)C2(C)C)C(C)C` [Example 5-11], with 0.1 to 1 nM; and `COC(=O)N[C@H](C(=O)N1CC(C)=C[C@H]1c1nc(-c2ccc(-c3ccc(C(=O)Nc4ccc(N5CC(C)N(C(=O)C(C)(C)C)C[C@H]5C)nc4)cc3OC(F)(F)F)cc2)c[nH]1)C(C)C` (stereo partly shown) [Example 2-3], with 0.1 to 1 nM. Then `COC(=O)N[C@H](C(=O)N1[C@@H]2CC[C@@H](C2)[C@H]1c1nc(-c2ccc(-c3cc(Cl)c(NC(=O)c4ccc(N5CCN(C(=O)C(C)(C)C)C[C@H]5C)nc4)cc3OC(F)(F)F)cc2)c[nH]1)C(C)C` [Example 5-5], with 0.1 to 1 nM; and `COC(=O)N[C@H](C(=O)N1C[Si](C)(C)C[C@H]1c1nc(-c2ccc(-c3cc(Cl)c(NC(=O)c4ccc(N5CCN(C(=O)C(C)(C)C)C[C@H]5C)nc4)cc3OC(F)(F)F)cc2)c[nH]1)C(C)C` [Example 6, [(S)-1-((R)-5-{4-[5′-Chloro-4′-({6-[(R)-4-(2,2-dimethyl-propionyl)-2-methyl-piperazin-1-yl]-pyridine-3-carbonyl}-amino)-2′-trifluoromethoxy-biphenyl-4-yl]-1H-imidazol-2-yl}-3,3-dimethyl-[1,3]azasilolidine-1-carbonyl)-2-methyl-propyl]-carbamic acid methyl ester], with 0.1 to 1 nM. The same measure for `COC(=O)N[C@H](C(=O)N1CC(C)=C[C@H]1c1nc(-c2ccc(-c3cc(Cl)c(NC(=O)c4ccc(N5CCN(C(=O)[C@H]6CC6(C)C)C[C@H]5C)nc4)cc3OC(F)(F)F)cc2)c[nH]1)C(C)C` [Example 2, ((S)-1-{(S)-2-[4-(5′-Chloro-4′-{[6-((R)-4-(S)-2,2-dimethylcyclopropanecarbonyl-2-methyl-piperazin-1-yl)-pyridine-3-carbonyl]-amino}-2′-trifluoromethoxy-biphenyl-4-yl)-1H-imidazol-2-yl]-4-methyl-2,5-dihydro-pyrrole-1-carbonyl}-2-methyl-propyl)-carbamic acid methyl ester]: less than 0.1 nM; for `COC(=O)N[C@H](C(=O)N1[C@@H]2C[C@@H]2CC[C@H]1c1nc(-c2ccc(-c3cc(Cl)c(NC(=O)c4ccc(N5CCN(C(=O)[C@H]6CC6(C)C)C[C@H]5C)nc4)cc3OC(F)(F)F)cc2)c[nH]1)C(C)C` [Example 5-8]: less than 0.1 nM.

`COC(=O)N[C@H](C(=O)N1CC(C2CC2)=C[C@H]1c1nc(-c2ccc(-c3ccc(C(=O)Nc4ccc(N5CCN(C(=O)C(C)(C)C)C[C@H]5C)nc4)cc3OC(F)(F)F)cc2)c[nH]1)C(C)C` [Example 12, ((S)-1-{(S)-4-Cyclopropyl-2-[4-(4′-{6-[(R)-4-(2,2-dimethyl-propionyl)-2-methyl-piperazin-1-yl]-pyridin-3-ylcarbamoyl}-2′-trifluoromethoxy-biphenyl-4-yl)-1H-imidazol-2-yl]-2,5-dihydro-pyrrole-1-carbonyl}-2-methyl-propyl)-carbamic acid methyl ester]: the EC50 is 0.1 to 1 nM. The same measure for `COC(=O)N[C@H](C(=O)N1CC(C)=C[C@H]1c1nc(-c2ccc(-c3cc(Cl)c(NC(=O)c4ccc(N5CCN(C(=O)C(C)(C)C)C[C@H]5C)nc4)cc3OC(F)(F)F)cc2)c[nH]1)C(C)C` [Example 1, [(S)-1-((S)-2-{4-[5′-Chloro-4′-({6-[(R)-4-(2,2-dimethyl-propionyl)-2-methyl-piperazin-1-yl]-pyridine-3-carbonyl}-amino)-2′-trifluoromethoxy-biphenyl-4-yl]-1H-imidazol-2-yl}-4-methyl-2,5-dihydro-pyrrole-1-carbonyl)-2-methyl-propyl]-carbamic acid methyl ester]: less than 0.1 nM.

Consider `COC(=O)N[C@H](C(=O)N1C[C@@H](C)C[C@H]1c1nc2c(ccc3cc(-c4ccc(C(=O)Nc5ccc(N6CC(C)N(C(=O)C(C)(C)C)C[C@H]6C)nc5)cc4OC(F)(F)F)ccc32)[nH]1)C(C)C` (stereo partly shown) [Example 3-9], for which the EC50 was less than 0.1 nM.
